In publication PMC12977544, “Phenotypic high-throughput screening identifies modulators of gut microbial choline metabolism” (mBio, 2026):
Values after ≈ are worked out from the molar mass of the structure shown.

Columns and labels:
[1] = test system: Proteus mirabilis lysates; set-up: method as in PMID 30082863; conditions: read-out: IC50 against Proteus mirabilis lysates; cited from earlier work
[2] = test system: high affinity choline transporter (HAChT), choline transport in rat synaptosomes; set-up: method as in PMID 2066974; conditions: cited from earlier work
[3] = cited from earlier work
TMAO production in vivo = test system: TMAO production in vivo; set-up: method as in PMID 30082863; conditions: cited from earlier work
E. coli MS 200-1 [4] = experiment: TMA inhibition in bacterial whole cells (LC–MS/MS of d9-TMA from d9-choline); format: cell-based, Escherichia coli MS 200-1; conditions: 1 mM d9-choline in PBS, 75 min, 37°C, anaerobic
Method: (§1) For TMA inhibition assays, E. coli and P. mirabilis were grown in NCE medium supplemented with 20 mM choline chloride, A. hydrogenalis was grown in MEGA medium supplemented with 3 mM choline chloride, and C. sporogenes was grown in BHI medium supplemented with 20 mM of choline chloride to induce expression of the cut gene cluster. For MIC assays, all bacteria strains were grown in MEGA medium.
(§2) Compounds were stored as 10 mM DMSO stocks at –20°C and diluted in DMSO to prepare varying concentrations of inhibitors for testing. Bacteria were grown anaerobically overnight in media supplemented with choline as described above. Cells were pelleted and resuspended in PBS, and d9-choline chloride was added to a final concentration of 1 mM. The final OD600 of the PBS cell resuspensions is as follows: 0.4 (E. coli), 0.15–0.2 (P. mirabilis), 0.2 (C. sporogenes), and 0.4 (A. hydrogenalis). The resuspended cells were added to 96-well plates containing inhibitors (final concentration of 1% DMSO, with final inhibitor concentrations ranging between 0 and 325 µM). The plates were sealed and incubated for 75 min (or 90 min for P. mirabilis) at 37°C. Following incubation, the plates were removed from the anaerobic chamber and analyzed immediately or kept at –20°C until LC–MS/MS analysis. Each inhibitor concentration was tested in triplicate. EC50 values were calculated with GraphPad Prism by fitting the log(inhibitor) vs response—Variable slope (four-parameter) model for non-linear regression.
(§3) Samples were kept frozen until analysis and kept cold on ice during handling due to the volatility of TMA. Bacterial cell resuspensions in PBS were diluted 100-fold in LCMS-grade acetonitrile with 0.1% formic acid to lyse cells, precipitate proteins, and extract metabolites. Samples were centrifuged at 4,000 rpm for 10 min at 4°C to pellet proteins. The supernatants were then further diluted 20-fold in LCMS-grade acetonitrile with 0.1% formic acid, and the resulting solution was analyzed by LC–MS/MS.
(§4) LC–MS/MS analysis was performed on an Agilent 1290/6470 Triple Quadrupole LC–MS instrument (Agilent Technologies) using electrospray ionization. The mass spectrometer was operated in multiple reaction monitoring (MRM) mode with positive ionization monitoring. The precursor–product ion pairs used in MRM mode were as follows: m/z 69.1m/z → 49.1 (d9-TMA) and m/z 113.2 m/z → 69.1 (d9-choline). The capillary voltage was set to 4.0 kV, and the fragmentor voltage was set to 30 V (d9-TMA) and 115 V (d9-choline). The collision energy for the precursor–product ion pairs was set to 29 V (d9-TMA) and 21 V (d9-choline). MS^1 resolution was set to wide and MS^2 resolution to unit. The drying gas temperature was maintained at 250°C, with a flow rate of 11 L/min and a nebulizer pressure of 45 psi. The time filter width used was 0.07 min. The injection volume of all samples was 1 μL. Samples were injected onto InfinityLab Poroshell 120 (Agilent) HILIC columns (2.7 μm, 100 mm × 2.1 mm, 100 Å) preceded by InfinityLab Poroshell 120 HILIC guard columns (2.1 mm, 1.9µm UHPLC guard). The LC conditions on the binary pump were as follows: a gradient of 5–35% A increasing over 1.95 min (1.2 mL/min), a gradient of 35–5% A decreasing over 0.05 min (1.6 mL/min), and held at 5% A for 0.5 min (2 mL/min). […] Solvent A was 10 mM ammonium formate with 0.1% formic acid, and solvent B was acetonitrile with 0.1% formic acid. Data analysis was performed with Mass Hunter Workstation Data Acquisition and Qualitative Analysis software (Agilent Technologies).

[5] = test system: Proteus mirabilis ATCC 29906; experiment: MIC in MEGA medium; format: cell-based; conditions: anaerobic, 37°C, 24 h, up to 200 µM; read-out: MIC in MEGA medium, P. mirabilis
Method: as §1

[6] = test system: Bacteroides caccae ATCC 43185; experiment: MIC in MEGA medium; format: cell-based; conditions: anaerobic, 37°C, 24 h, up to 200 µM; read-out: MIC in MEGA medium, B. caccae
Method: as §1

[7] = test system: Anaerococcus hydrogenalis DSM 7454; experiment: MIC in MEGA medium; format: cell-based; conditions: anaerobic, 37°C, 24 h, up to 200 µM
Method: as §1

[8] = test system: Eubacterium rectale ATCC 33656; experiment: MIC in MEGA medium; format: cell-based; conditions: anaerobic, 37°C, 24 h, up to 200 µM; read-out: MIC in MEGA medium, E. rectale
Method: as §1

[9] = test system: Clostridium sporogenes ATCC 15579; experiment: MIC in MEGA medium; format: cell-based; conditions: anaerobic, 37°C, 24 h, up to 200 µM
Method: as §1

[10] = test system: Collinsella aerofaciens ATCC 25986; experiment: MIC in MEGA medium; format: cell-based; conditions: anaerobic, 37°C, 24 h, up to 200 µM
Method: as §1

[11] = test system: Bacteroides thetaiotaomicron VPI-5482; experiment: MIC in MEGA medium; format: cell-based; conditions: anaerobic, 37°C, 24 h, up to 200 µM; read-out: MIC in MEGA medium, B. thetaiotaomicron
Method: as §1

[12] = test system: Bacteroides ovatus ATCC 8483; experiment: MIC in MEGA medium; format: cell-based; conditions: anaerobic, 37°C, 24 h, up to 200 µM; read-out: MIC in MEGA medium, B. ovatus
Method: as §1

[13] = test system: Clostridium sporogenes ATCC 15579; experiment: TMA inhibition in bacterial whole cells (LC–MS/MS of d9-TMA from d9-choline); format: cell-based; conditions: 1 mM d9-choline in PBS, 75 min, 37°C, anaerobic
Method: as §1, §2, §3, §4

[14] = test system: panel of commensal bacterial strains; experiment: MIC against panel of nine gut commensal bacteria; conditions: of 9 bacterial strains tested
E. coli MS 200-1 [15] = experiment: MIC in MEGA medium; format: cell-based, Escherichia coli MS 200-1; conditions: anaerobic, 37°C, 24 h, up to 200 µM
Method: as §1

[16] = target: T1, purified CutC (choline trimethylamine-lyase) (Oleidesulfovibrio alaskensis, UniProt Q30W70); experiment: In vitro CutC activity assay coupled to YADH/NADH (absorbance 340 nm); format: biochemical, Desulfovibrio desulfuricans G20; conditions: 5 nM CutC, 200 µM choline, 20°C, anaerobic
T1 construct: made in house
Method: To investigate if our compounds were inhibiting CutC directly, we tested their activity toward the purified enzyme. The activity of CutC was determined using a coupled enzyme assay, where the acetaldehyde product from the cleavage of choline to TMA is reduced to ethanol by yeast alcohol dehydrogenase (YADH) using nicotinamide adenine dinucleotide (NADH) as a cofactor. The consumption of NADH results in a change in absorption at 340 nm, and this rate of change of absorption was used to calculate the initial rates of reaction of CutC in the presence of varying concentrations of inhibitors ([14], [65]).
CutC and CutD enzymes from Desulfovibrio desulfuricans G20 were purified, CutC was activated by incubation with CutD, and the amount of glycyl radical installation was quantified as previously described ([15]). The IC50 of compounds was determined in an in vitro CutC activity assay, where CutC activity is coupled to the NADH-dependent enzymatic reduction of acetaldehyde by YADH ([15]). Briefly, assays were conducted in an anaerobic chamber (MBraun) under N2 atmosphere at 20°C. In 50 mM potassium phosphate buffer (pH 8.0, 50 mM KCl), 40 µM of CutD and 150 µM of sodium dithionite were incubated for 20 min before the addition of 200 µM of SAM and 20 µM of CutC monomer. The mixture was incubated for 1 h to activate the glycyl radical enzyme, after which the activated CutC mixture was diluted […] in 50 mM potassium phosphate buffer (pH 8.0, 50 mM KCl). A master mix containing 200 µM NADH, 0.4 µM YADH (Sigma), and the diluted CutC mixture (5 nM final concentration in assay) was prepared and aliquoted into 96-well plates (180 µL per well). Ten microliters of inhibitor or DMSO vehicle was added, followed by 10 µL of aqueous choline chloride solution (final concentration 200 µM). Absorbance was measured at 340 nm immediately after addition of all assay components, with measurements taken every 20 s for 10 min. Initial rates were calculated from absorbance measurements and fitted to Michaelis–Menten equation using nonlinear regression in GraphPad Prism 10 (v. 10.4.0). Background activity was subtracted using no substrate controls, and initial rates for each inhibitor concentration were normalized to no inhibitor controls. IC50 values were obtained by plotting normalized activity values against the logarithm of inhibitor concentration and fitting to a nonlinear regression model in GraphPad Prism 10 (v. 10.4.0).

E. coli MS 200-1 [17] = experiment: Growth inhibition of E. coli cultures in choline- and glycerol-containing minimal media; format: cell-based, Escherichia coli MS 200-1
Method: To validate the potential hits from the HTS, we tested the 178 compounds for inhibition of growth of E. coli MS 200-1 in glycerol minimal media at 30 µg/mL, following up with those without activity. […]. We then determined EC50 values for inhibition of TMA production from choline by bacterial cultures incubated with [trimethyl-d9]choline in phosphate-buffered saline. Of the 178 compounds tested in both growth and TMA inhibition assays, 20 inhibited TMA generation by E. coli MS 200-1 without growth-inhibitory effects in glycerol minimal medium.
NCE media was adapted based on the “no carbon E” media as previously described ([14]), and contains 29 mM potassium phosphate monobasic, 29 mM potassium phosphate dibasic, 17 mM ammonium sodium phosphate dibasic, 40 mM sodium fumarate dibasic, 0.1% (wt/vol) casamino acids, and either 20 mM choline chloride or 3 g/L glycerol. This mixture was supplemented with 1 mM magnesium sulfate, 1% ATCC vitamin supplement, and 1% ATCC trace mineral supplement.

[18] = test system: cut gene cluster expression in E. coli MS 200-1; experiment: Transcription of the cut gene cluster after choline induction (Nanostring nCounter); conditions: 10 µM, NCE glycerol, 1 mM choline induction, 1.5 h
[19] = test system: choline transport into ∆cutC E. coli MS 200-1 cells; experiment: [14C]-choline uptake; format: cell-based, Escherichia coli MS 200-1 ∆cutC; conditions: 10 µM
Method: The ∆cutC strain of E. coli was used in this assay to prevent the formation of volatile radioactive TMA. When cells were grown aerobically, incubation with compound 42 increased choline uptake by 15 times compared to vehicle treatment (Fig. S2B).
E. coli MS 200-1 ∆cutC was grown either aerobically or anaerobically in LB medium supplemented with 1 mM choline chloride. Cells were pelleted and resuspended in fresh PBS after overnight growth to OD600 of 1 and aliquoted into microcentrifuge tubes. […] 5 µM [^14C] choline was added to the cells and left to incubate for 15 mins aerobically. At the end of the incubation period, cells were washed with PBS three times by centrifugation at 3,000 × g for 5 min and resuspended in equal volume of PBS. The resulting cell resuspension in PBS was transferred to a scintillation vial, where 10 mL of liquid scintillation cocktail was added and mixed. Radioactivity was counted using a Beckman Coulter LS6000 liquid scintillation counter for 1 min per sample.

[20] = test system: Hungatella hathewayi cultures; set-up: method as in PMID 31059309; conditions: cited from earlier work
choline transporters = test system: choline transporters; set-up: method as in PMID 33271015; conditions: read-out: IC50 of choline transport in human cells that overexpress choline transporters; cited from earlier work

T1 sequence (Q30W70 53-846): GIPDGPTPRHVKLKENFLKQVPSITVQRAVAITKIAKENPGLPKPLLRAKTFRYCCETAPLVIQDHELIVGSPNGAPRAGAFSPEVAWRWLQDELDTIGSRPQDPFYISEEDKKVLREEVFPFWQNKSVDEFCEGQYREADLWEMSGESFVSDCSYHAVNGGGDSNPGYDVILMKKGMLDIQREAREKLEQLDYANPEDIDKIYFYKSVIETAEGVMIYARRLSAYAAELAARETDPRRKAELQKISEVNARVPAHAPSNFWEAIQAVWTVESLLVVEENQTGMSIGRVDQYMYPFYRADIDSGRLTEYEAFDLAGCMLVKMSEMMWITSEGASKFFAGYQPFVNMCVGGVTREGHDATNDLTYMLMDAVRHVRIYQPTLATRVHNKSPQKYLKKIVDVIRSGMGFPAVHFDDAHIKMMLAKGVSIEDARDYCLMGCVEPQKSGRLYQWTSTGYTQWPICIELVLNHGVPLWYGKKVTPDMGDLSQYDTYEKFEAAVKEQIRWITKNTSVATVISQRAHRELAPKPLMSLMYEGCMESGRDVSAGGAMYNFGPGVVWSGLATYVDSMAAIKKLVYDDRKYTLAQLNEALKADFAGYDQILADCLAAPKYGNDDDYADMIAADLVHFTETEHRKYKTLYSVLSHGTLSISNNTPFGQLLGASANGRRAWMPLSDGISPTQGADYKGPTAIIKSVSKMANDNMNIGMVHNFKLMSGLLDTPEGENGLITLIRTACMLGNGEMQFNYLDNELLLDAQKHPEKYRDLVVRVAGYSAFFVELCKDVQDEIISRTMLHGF

Compound: C[N+](C)(CI)CCO [IMC, Iodomethylcholine]
- IC50 [1]: 0.0015 µM
- IC50 [2]: 0.49 µM
- Concentration in mice cecum and colon samples ([3]; dosed at 100 mg/kg, after 24 h): around 6 mM
- Level of inhibitor and its metabolite iodomethylbetaine in serum ([3]; mouse, in vivo): low micromolar levels
- EC50 of inhibition of TMAO production in vivo (TMAO production in vivo): 45 mg/kg

Compound: Cc1ccc(-c2cc(C(=O)NCCCN3CCC(C)CC3)c(C)n2Cc2ccccc2)cc1C [Compound 19]
- EC50 (E. coli MS 200-1 [4]): 28 µM
- MIC [5]: > 200 µM
- MIC [6]: > 200 µM
- MIC [7]: 25 µM (≈ 11.4 µg/mL)
- MIC [8]: 25 µM (≈ 11.4 µg/mL)
- MIC [9]: > 200 µM
- MIC [10]: 6.25 µM (≈ 2.86 µg/mL)
- MIC [11]: 50 µM (≈ 22.9 µg/mL)
- MIC [12]: 25 µM (≈ 11.4 µg/mL)
- EC50 [13]: 4 µM
- Bacterial strains with growth inhibited (MIC < 200 µM) [14]: five out of 9
- MIC (E. coli MS 200-1 [15]): > 200 µM

Compound: Cc1ccc(-c2cc(C(=O)NCCCN3CCCCCC3)c(C)[nH]2)cc1C [Compound 42]
- IC50 [16]: 24 µM
- Inhibition of E. coli growth on choline (E. coli MS 200-1 [17]; choline minimal medium, 7 h, 6: 125–500 µM, 42: 30–100 µM): dose-dependent
- Effect on growth of E. coli MS 200-1 in glycerol medium (E. coli MS 200-1 [17]; glycerol NCE minimal medium): not observed in glycerol
- Effect on cut gene cluster expression vs DMSO control [18]: did not significantly change gene expression
- Increase of choline uptake compared to vehicle ([19]; cells grown aerobically): 15 times
- Increase of choline uptake compared to vehicle ([19]; cells grown anaerobically): 1.2 times

Compound: C[N+](C)(CF)CCO [FMC, fluoromethylcholine]
- EC50 of inhibition of TMAO production in vivo (TMAO production in vivo): 3.4 mg/kg

Compound: C[N+](C)(CCO)CCCCCCOc1cccc(I)c1 [Compound 4]
- IC50 [20]: 15 µM
- IC50 (choline transporters): 0.044 µM
